Source: patent US12102639B2, “Imipridones for gliomas” (Oncoceutics, Inc., priority 2017, dated 2024)
“Also recorded” adds a separate entry of the source.

How the values were obtained:
[1] = test system: DRD2 (short and long isoforms); assay: GPCR β-arrestin recruitment reporter assay, DRD2; assay type: cell-based; conditions: for activity at DRD2: arrestin recruitment reporter assay
DRD5 = DRD5 (Homo sapiens, UniProt P21918); assay: GPCR β-arrestin recruitment reporter assay, DRD5; assay type: cell-based
Sequence of DRD5 (P21918 whole entry): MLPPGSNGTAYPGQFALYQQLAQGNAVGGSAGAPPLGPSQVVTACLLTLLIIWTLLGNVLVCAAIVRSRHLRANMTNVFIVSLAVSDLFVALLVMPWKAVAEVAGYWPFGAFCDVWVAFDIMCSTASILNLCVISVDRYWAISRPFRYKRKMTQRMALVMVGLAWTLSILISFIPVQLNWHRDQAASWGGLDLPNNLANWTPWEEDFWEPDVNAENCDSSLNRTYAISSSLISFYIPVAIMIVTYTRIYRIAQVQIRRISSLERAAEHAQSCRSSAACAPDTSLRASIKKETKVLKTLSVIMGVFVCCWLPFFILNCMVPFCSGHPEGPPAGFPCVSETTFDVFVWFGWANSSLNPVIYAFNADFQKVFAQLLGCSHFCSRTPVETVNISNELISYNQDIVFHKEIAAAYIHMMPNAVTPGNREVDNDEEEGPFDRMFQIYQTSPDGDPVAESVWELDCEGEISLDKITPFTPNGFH

[2] = test system: recurrent high grade glioma; assay: Progression-free survival of patients with recurrent high grade glioma; assay type: in vivo, human; conditions: H3 K27M (n=15) vs wild-type or unknown H3 status (n=35)
Description: In one study of thirty-nine pediatric diffuse intrinsic pontine gliomas, DIPG patients carrying the K27M-H3.3 mutation (n=30) have worse overall survival compared to patients wild-type (n=9) for this histone (Khoung-Quang et al., Acta Neuropathol (2012) 124:439). […] The cohort is divided into two groups: one with known H3 K27M mutation (n=15) and the other with wild-type or unknown H3 status (n=35).

[3] = test system: temozolomide-resistant high-grade glioma xenografts; assay: High-grade glioma xenografts in mice; assay type: in vivo
[4] = test system: GDSC collection of cell lines; assay: Genomic of Drug Sensitivity in Cancer (GDSC) cell line collection; assay type: cell-based, human; conditions: cell viability at 72 hours post-treatment
Description: FIG. 2. Tumor type sensitivity of the Genomic of Drug Sensitivity in Cancer program (GDSC) cell line collection. […] Numbers above the bar indicates indicate the number of cell lines per tumor type.
High expression of DRD2 occurred in primary, rather than secondary, glioblastoma and was associated with a poor prognosis. […] Resistance could be recapitulated with overexpression of the mutant DRD5 gene or, to a lesser extent, with the wild-type gene.

DRD4 = DRD4 (Homo sapiens, UniProt P21917); conditions: arrestin recruitment reporter assay
Sequence of DRD4 (P21917 whole entry): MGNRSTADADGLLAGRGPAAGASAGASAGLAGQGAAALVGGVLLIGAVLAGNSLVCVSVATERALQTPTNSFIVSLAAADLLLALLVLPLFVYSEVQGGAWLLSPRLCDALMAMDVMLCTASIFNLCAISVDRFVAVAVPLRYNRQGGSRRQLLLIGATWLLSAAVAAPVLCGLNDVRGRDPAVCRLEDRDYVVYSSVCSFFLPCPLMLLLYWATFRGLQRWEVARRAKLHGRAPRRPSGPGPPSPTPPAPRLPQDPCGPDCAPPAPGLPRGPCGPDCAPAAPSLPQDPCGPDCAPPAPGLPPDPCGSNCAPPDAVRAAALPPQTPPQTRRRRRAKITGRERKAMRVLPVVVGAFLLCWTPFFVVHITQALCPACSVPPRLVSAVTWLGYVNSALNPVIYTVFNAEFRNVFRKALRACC

DRD2 = DRD2 (Homo sapiens, UniProt P14416); conditions: relative to antipsychotics
Sequence of DRD2 (P14416 whole entry): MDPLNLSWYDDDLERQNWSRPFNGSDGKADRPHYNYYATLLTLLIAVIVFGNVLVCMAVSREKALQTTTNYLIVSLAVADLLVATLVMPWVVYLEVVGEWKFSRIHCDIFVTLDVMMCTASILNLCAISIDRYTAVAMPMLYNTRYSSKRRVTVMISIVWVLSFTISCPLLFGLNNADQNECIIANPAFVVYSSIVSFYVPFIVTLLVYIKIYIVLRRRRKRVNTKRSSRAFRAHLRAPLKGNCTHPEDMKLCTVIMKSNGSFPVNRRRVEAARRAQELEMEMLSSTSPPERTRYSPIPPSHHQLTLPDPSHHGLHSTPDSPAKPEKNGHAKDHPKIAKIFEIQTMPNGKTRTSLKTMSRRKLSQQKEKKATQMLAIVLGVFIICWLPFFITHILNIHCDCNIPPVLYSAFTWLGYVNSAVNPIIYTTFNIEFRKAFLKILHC

MV411 AML cells = assay: MV411 AML xenograft model; conditions: 50 mg/kg, oral weekly administration (ONC201 at similar doses)
[5] = test system: tumor cells (HCT116, MDA-MB-231, U87); assay: Cell viability of tumor cells after 72 hours; conditions: Homo sapiens, read-out: viability of tumor cells
[6] = test system: H3.3 K27M mutant diffuse intrinsic pontine glioma (DIPG); assay: Treatment of girls with H3.3 K27M mutant DIPG; conditions: for symptoms / radiographic evaluation of tumor: child
[7] = Phase II recurrent glioblastoma trial (NCT02525692); conditions: human, in vivo, 625 mg
recurrent glioblastoma = assay: as above
GPCRs = assay: In vitro profiling of GPCR activity (arrestin recruitment panel)
[8] = test system: NCI60 cancer cell line panel; assay: NCI60 cancer cell line panel; assay type: cell-based; conditions: NCI60 panel (FIG. 4)
[9] = test system: Ewing's sarcoma cell lines; assay: Ewing's sarcoma cell lines; assay type: cell-based; conditions: 16 Ewing's sarcoma cell lines (FIG. 6, 7)
[10] = test system: patient-derived glioma stem cell (GSC) populations; assay: Patient-derived glioma stem cell assays (CellTiter-Glo, limiting dilution, sphere formation); assay type: cell-based, human
Description: In silico analysis of a glioma patient database led to investigation of DRD2 signaling in glioma; alteration of DRD2 mRNA expression was directly connected to global gene expression change in the glioma patient database.

Bone cancer = Bone cancer responsiveness; assay type: cell-based; conditions: FIG. 5
HFF (Normal Fibroblast) = assay: Cell viability of HFF normal fibroblasts; conditions: therapeutic doses, Table 5
several cell lines = assay: In vitro potency in several cell lines (Table 5)
DRD3 = DRD3 (Homo sapiens, UniProt P35462); assay: GPCR β-arrestin recruitment reporter assay, DRD3; assay type: cell-based
Sequence of DRD3 (P35462 whole entry): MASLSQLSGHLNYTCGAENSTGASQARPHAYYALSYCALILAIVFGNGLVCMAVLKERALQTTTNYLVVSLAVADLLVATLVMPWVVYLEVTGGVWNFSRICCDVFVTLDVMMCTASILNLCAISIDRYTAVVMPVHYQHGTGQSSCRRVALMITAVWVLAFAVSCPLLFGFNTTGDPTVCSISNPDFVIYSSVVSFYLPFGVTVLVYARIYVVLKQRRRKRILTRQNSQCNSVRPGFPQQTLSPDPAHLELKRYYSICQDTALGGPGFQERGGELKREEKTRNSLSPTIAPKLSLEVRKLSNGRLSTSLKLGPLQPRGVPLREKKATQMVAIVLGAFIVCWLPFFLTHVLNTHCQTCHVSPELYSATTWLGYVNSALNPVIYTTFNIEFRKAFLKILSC

GPR132 = target: T1, GPR132 (Homo sapiens, UniProt Q9UNW8); assay: GPCR arrestin recruitment reporter assay, GPR132; assay type: cell-based; conditions: for activity at GPR132: arrestin recruitment reporter assay
T1 construct: expressed in transfected cells
T1 sequence (Q9UNW8 1-380): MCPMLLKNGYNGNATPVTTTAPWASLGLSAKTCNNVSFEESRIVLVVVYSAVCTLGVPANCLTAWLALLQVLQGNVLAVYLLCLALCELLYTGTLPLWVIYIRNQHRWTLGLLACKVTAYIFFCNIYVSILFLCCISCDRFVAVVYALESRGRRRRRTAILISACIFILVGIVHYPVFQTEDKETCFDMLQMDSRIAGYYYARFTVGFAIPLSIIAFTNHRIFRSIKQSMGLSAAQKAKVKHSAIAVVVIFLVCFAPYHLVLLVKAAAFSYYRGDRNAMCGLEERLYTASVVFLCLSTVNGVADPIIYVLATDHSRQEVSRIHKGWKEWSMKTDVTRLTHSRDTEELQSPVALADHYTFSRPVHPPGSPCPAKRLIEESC
Method: (§1) Dual targeting of DRD2/3 and GPR132/91 represents a novel strategy for anti-cancer efficacy without toxicity. […] The safety profile of ONC213 confirmed in mouse MTD study with NOAEL 75 mg/kg three times that of ONC212 (25 mg/kg).
(§2) ONC201 dihydrochloride was obtained from Oncoceutics.

GPR91 = target: T2, GPR91 (Homo sapiens, UniProt Q9BXA5); assay: GPCR arrestin recruitment reporter assay, GPR91; assay type: cell-based
T2 construct: expressed in transfected cells
T2 sequence (Q9BXA5 whole entry): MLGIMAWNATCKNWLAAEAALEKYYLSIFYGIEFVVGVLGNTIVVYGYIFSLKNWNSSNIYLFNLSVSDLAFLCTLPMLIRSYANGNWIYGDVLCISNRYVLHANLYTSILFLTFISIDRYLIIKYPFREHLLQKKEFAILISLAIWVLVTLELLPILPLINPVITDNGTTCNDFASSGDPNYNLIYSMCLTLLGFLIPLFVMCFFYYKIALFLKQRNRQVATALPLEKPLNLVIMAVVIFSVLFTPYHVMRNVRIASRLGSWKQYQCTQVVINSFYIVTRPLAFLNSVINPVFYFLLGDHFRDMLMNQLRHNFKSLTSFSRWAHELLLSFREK
Method: as §1, §2

CXCR7 = target: T3, CXCR7 (Homo sapiens, UniProt P25106); assay: GPCR arrestin recruitment reporter assay, CXCR7; assay type: cell-based
T3 construct: expressed in transfected cells
T3 sequence (P25106 whole entry): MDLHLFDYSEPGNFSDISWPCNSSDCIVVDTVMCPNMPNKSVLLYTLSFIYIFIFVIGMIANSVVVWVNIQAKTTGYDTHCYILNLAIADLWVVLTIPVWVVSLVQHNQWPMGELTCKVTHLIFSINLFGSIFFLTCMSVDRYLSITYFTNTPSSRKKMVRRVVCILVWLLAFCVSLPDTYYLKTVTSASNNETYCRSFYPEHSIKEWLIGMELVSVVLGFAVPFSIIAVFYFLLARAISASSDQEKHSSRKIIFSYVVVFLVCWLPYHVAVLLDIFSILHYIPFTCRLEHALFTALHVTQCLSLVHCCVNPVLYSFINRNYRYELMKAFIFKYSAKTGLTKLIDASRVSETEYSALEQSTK
Description: as §2

HCT116 cells = assay: Anticancer efficacy in HCT116 cells; assay type: cell-based, human; conditions: HCT116 cells
DRD2L = DRD2L (Homo sapiens, UniProt P14416); assay: Arrestin recruitment to DRD2L, Gaddum/Schild EC50 shift analysis; assay type: cell-based
Sequence of DRD2L (P14416 whole entry): as the sequence (P14416 whole entry) above

[11] = 17 patients, 625 mg every three weeks

Cc1ccccc1CN1C(=O)C2=C(CCN(Cc3ccccc3)C2)N2CCN=C12 [ONC201, 7-benzyl-4-(2-methylbenzyl)-1,2,6,7,8,9-hexahydroimidazo [1,2-a]pyrido [3,4-e]pyrimidin-5(1H)-one]
activity at DRD2 [1]: selectively antagonizes; also recorded: antagonized
activity at DRD5 (DRD5): no antagonism; also recorded: but not D1-like (DRD1/5)
progression-free survival (PFS) [2]: superior progression-free survival (PFS) in H3 K27M patients
survival of mice with orthotopic xenografts ([3]; monoagent and in combination with bevacizumab): prolongs the survival
effect on xenografts ([3]; temozolomide-resistant high-grade glioma xenografts): shrinks
in vitro efficacy profiling [4]: broad anti-cancer efficacy with high sensitivity in human brain cancer cell lines
activity at DRD4 (DRD4): weaker potency
interactions with the kinome (kinome): no significant interactions
association rate for DRD2 (DRD2): very slow
leukemia xenograft tumor growth (MV411 AML cells): not efficacious
viability at 5000 µg/mL [5]: < 25%
symptoms ([6]; 125 mg once weekly): complete resolution of their inability to use their left arm and hand
radiographic evaluation of tumor ([6]; 125 mg once weekly, after 6 weeks): stable tumor lesion
symptoms ([6]; 500 mg once weekly): near-complete resolution of their facial palsy; also recorded: improvement in facial palsy
radiographic evaluation of tumor ([6]; 500 mg once weekly, after 16 weeks): significant regression; also recorded: shrinkage of lesion
tolerability ([6]; once weekly dosing): tolerates the therapy well
concentration at 2 h [7]: 2.6 µg/mL
Median OS (recurrent glioblastoma; [11]): 41.6 weeks
OS12 (recurrent glioblastoma; [11]): 35%
regression (recurrent glioblastoma; one patient, 625 mg every three weeks, after 15 months of therapy): 92%
time on study (recurrent glioblastoma; person one): > 10 weeks
response (recurrent glioblastoma; person one, H3 K27M, first on-treatment evaluation at 8 weeks): complete disappearance of malignant lesions; also recorded: complete disappearance of tumor lesions
time on therapy with durable response (recurrent glioblastoma; person two): > 1.5 years
response (recurrent glioblastoma; person two, H3.3 K27M mutant, 625 mg once every three weeks): durable objective response with complete regression of thalamic lesions
overall tumor size regression (recurrent glioblastoma; person two, H3.3 K27M mutant, 625 mg once every three weeks, after 18 doses): 96%
serum prolactin (recurrent glioblastoma; surrogate marker of target engagement): serum prolactin induction was observed; also recorded: significant induction of serum prolactin
GPCR profile (GPCRs): Antagonism of adrenoceptor alpha receptors or other GPCRs was not observed

O=C1C2=C(CCN(Cc3ccccc3)C2)N2CCN=C2N1Cc1cccs1 [ONC203]
anti-cancer efficacy [8]: inactive negative control

O=C1C2=C(CCN(Cc3ccccc3)C2)N2CCN=C2N1Cc1ccc(F)cc1F [ONC206]
activity at DRD2 [1]: selective DRD2 antagonism
anti-cancer efficacy [8]: demonstrated anti-cancer efficacy across various tumor types
anti-cancer efficacy [9]: most ONC206 responsive bone cancer subtype; also recorded: nanomolar range in 14 out of 16 Ewing's sarcoma cell lines
effect on glioma stem cells ([10]; CellTiter-Glo cell viability, compared to differentiated glioma cells): potently inhibits; also recorded: preferentially eliminated GSCs
tumor sphere formation ([10]; in vitro limiting dilution assay and sphere formation analysis): prevented tumor sphere formation and tumor growth
responsiveness (Bone cancer): more responsive to ONC206 than ONC201
in vitro toxicity to normal cells (HFF (Normal Fibroblast)): no in vitro toxicity to normal cells at therapeutic doses
improvement in in vitro potency compared to ONC201 (several cell lines): up to 20 fold

O=C1C2=C(CCN(Cc3ccccc3)C2)N2CCN=C2N1Cc1ccc(F)c(F)c1 [ONC213]
activity at DRD2 [1]: inhibitor
DRD2/3 potency ([1]; rank against other imipridones): more than ONC201 but less than ONC206
activity at DRD3 (DRD3): inhibitor
activity at GPR132 (GPR132): agonist
GPR132 potency (GPR132; rank against other imipridones): less than ONC212
activity at GPR91 (GPR91): agonist

O=C1C2=C(CCN(Cc3ccc(Cl)c(Cl)c3)C2)N2CCN=C2N1Cc1ccc(C(F)(F)F)cc1 [ONC234]
activity at DRD2 [1]: antagonist activity
activity at DRD5 (DRD5): antagonist activity
activity at CXCR7 (CXCR7; arrestin recruitment reporter assay): agonist activity
GPCR profile (GPCRs): broad spectrum and potent GPCR targeting small molecule

O=C1C2=C(CCN(Cc3ccsc3)C2)N2CCN=C2N1Cc1ccc(C(F)(F)F)cc1 [ONC236]
IC50 (HCT116 cells): 0.234 µM
IC50 (HCT116 cells; Homo sapiens, HCT-116): 0.088 µM
activity at GPR132 (GPR132): highly selective GPR132 agonist

O=C1C2=C(CCN(CC(O)c3ccccc3)C2)N2CCN=C2N1Cc1ccc(C(F)(F)F)cc1 (centres unmarked) [ONC237]
activity at DRD5 (DRD5): antagonist
activity at GPR132 (GPR132): agonist

Cc1ccccc1CN1C2=NCCN2C(=O)C2=C1CCN(Cc1ccccc1)C2 [TIC-10, reference compound]
activity at CXCR7 (CXCR7; statement in the description, no method given): CXCR7 agonist

TIC-10
inhibition of DRD2L (DRD2L): did not inhibit
